Results taken from the supplement of paper PMC10307832.

Assays:
Test in all cases: relative viability (nuclei count vs DMSO), 5 days (fraction); higher = more cells survive
[1] = tested on: ChaGo-K-1
How it was run: (§1)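 Values are medians from duplicate plates. Each reflects relative viability, defined as the nuclei count of treated wells over that of vehicle wells. Lung cancer cell lines in 1536-well plates were pin-tool dosed one day after seeding with one drug alone or with a fixed anchor-drug dose plus five library-drug doses (not always all listed) in √10 steps, then fixed, stained and imaged at 4× after 5 days.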

[2] = tested on: EKVX
How it was run: as §1

[3] = tested on: EMC-BAC-2
How it was run: as §1

[4] = tested on: H3255
How it was run: as §1

[5] = tested on: HARA
How it was run: as §1

[6] = tested on: HCC-15
How it was run: as §1

[7] = tested on: HCC-827
How it was run: as §1

[8] = tested on: LC-2-ad
How it was run: as §1

[9] = tested on: LCLC-97TM1
How it was run: as §1

[10] = tested on: LU99A
How it was run: as §1

[11] = tested on: NCI-H1437
How it was run: as §1

[12] = tested on: NCI-H1793
How it was run: as §1

[13] = tested on: NCI-H1915
How it was run: as §1

[14] = tested on: NCI-H1944
How it was run: as §1

[15] = tested on: NCI-H2126
How it was run: as §1

[16] = tested on: NCI-H23
How it was run: as §1

[17] = tested on: NCI-H322M
How it was run: as §1

[18] = tested on: NCI-H441
How it was run: as §1

[19] = tested on: NCI-H460
How it was run: as §1

[20] = tested on: NCI-H661
How it was run: as §1

[21] = tested on: PC-3 [JPC-3]
How it was run: as §1

[22] = tested on: SK-LU-1
How it was run: as §1

SMILES: O=C(O)CCCCC(CCSCc1ccccc1)SCc1ccccc1 (stereo not drawn) [CPI-613] + COc1cc2c(Oc3ccc(NC(=O)C4(C(=O)Nc5ccc(F)cc5)CC4)cc3F)ccnc2cc1OCCCN1CCOCC1 [Foretinib] (partner 0.25 µM)
- relative viability ([1]; first compound 5 µM): 0.818
- relative viability ([1]; first compound 15.81 µM): 0.901
- relative viability ([1]; first compound 50 µM): 0.929
- relative viability ([1]; first compound 158.11 µM): 0.245
- relative viability ([1]; first compound 500 µM): 0.105
- relative viability ([2]; first compound 5 µM): 0.83
- relative viability ([2]; first compound 15.81 µM): 0.754
- relative viability ([2]; first compound 50 µM): 0.983
- relative viability ([2]; first compound 158.11 µM): 0.399
- relative viability ([2]; first compound 500 µM): 0.531
- relative viability ([3]; first compound 5 µM): 1.01
- relative viability ([3]; first compound 15.81 µM): 0.993
- relative viability ([3]; first compound 50 µM): 0.967
- relative viability ([3]; first compound 158.11 µM): 0.367
- relative viability ([3]; first compound 500 µM): 0.0284
- relative viability ([4]; first compound 5 µM): 0.887
- relative viability ([4]; first compound 15.81 µM): 0.685
- relative viability ([4]; first compound 50 µM): 0.89
- relative viability ([4]; first compound 500 µM): 0.785
- relative viability ([5]; first compound 15.81 µM): 0.778
- relative viability ([5]; first compound 50 µM): 0.923
- relative viability ([5]; first compound 158.11 µM): 0.51
- relative viability ([5]; first compound 500 µM): 0.0068
- relative viability ([6]; first compound 5 µM): 0.974
- relative viability ([6]; first compound 15.81 µM): 1
- relative viability ([6]; first compound 50 µM): 1.01
- relative viability ([6]; first compound 158.11 µM): 0.236
- relative viability ([6]; first compound 500 µM): 0.039
- relative viability ([7]; first compound 5 µM): 1.04
- relative viability ([7]; first compound 15.81 µM): 1.02
- relative viability ([7]; first compound 50 µM): 1
- relative viability ([7]; first compound 158.11 µM): 0.416
- relative viability ([7]; first compound 500 µM): 0.312
- relative viability ([8]; first compound 5 µM): 0.842
- relative viability ([8]; first compound 15.81 µM): 0.796
- relative viability ([8]; first compound 50 µM): 0.957
- relative viability ([8]; first compound 158.11 µM): 0.434
- relative viability ([8]; first compound 500 µM): 0.0582
- relative viability ([9]; first compound 5 µM): 0.95
- relative viability ([9]; first compound 15.81 µM): 0.935
- relative viability ([9]; first compound 50 µM): 0.926
- relative viability ([9]; first compound 158.11 µM): 0.324
- relative viability ([9]; first compound 500 µM): 0.0466
- relative viability ([10]; first compound 5 µM): 0.83
- relative viability ([10]; first compound 15.81 µM): 0.776
- relative viability ([10]; first compound 50 µM): 0.733
- relative viability ([10]; first compound 158.11 µM): 0.461
- relative viability ([10]; first compound 500 µM): 0.112
- relative viability ([11]; first compound 5 µM): 1.22
- relative viability ([11]; first compound 15.81 µM): 1.23
- relative viability ([11]; first compound 50 µM): 1.29
- relative viability ([11]; first compound 158.11 µM): 0.426
- relative viability ([11]; first compound 500 µM): 0.0461
- relative viability ([12]; first compound 5 µM): 0.608
- relative viability ([12]; first compound 15.81 µM): 0.618
- relative viability ([12]; first compound 50 µM): 0.827
- relative viability ([12]; first compound 158.11 µM): 0.385
- relative viability ([12]; first compound 500 µM): 0.0145
- relative viability ([13]; first compound 5 µM): 1.04
- relative viability ([13]; first compound 15.81 µM): 1.09
- relative viability ([13]; first compound 50 µM): 1.06
- relative viability ([13]; first compound 158.11 µM): 0.309
- relative viability ([13]; first compound 500 µM): 0.132
- relative viability ([14]; first compound 5 µM): 0.923
- relative viability ([14]; first compound 15.81 µM): 0.878
- relative viability ([14]; first compound 50 µM): 0.967
- relative viability ([14]; first compound 158.11 µM): 0.649
- relative viability ([14]; first compound 500 µM): 0.0567
- relative viability ([15]; first compound 5 µM): 1.12
- relative viability ([15]; first compound 15.81 µM): 1.09
- relative viability ([15]; first compound 50 µM): 1.09
- relative viability ([15]; first compound 158.11 µM): 1.14
- relative viability ([15]; first compound 500 µM): 1.18
- relative viability ([16]; first compound 5 µM): 1.03
- relative viability ([16]; first compound 15.81 µM): 0.917
- relative viability ([16]; first compound 50 µM): 0.985
- relative viability ([16]; first compound 158.11 µM): 0.402
- relative viability ([16]; first compound 500 µM): 0.0153
- relative viability ([17]; first compound 5 µM): 0.969
- relative viability ([17]; first compound 15.81 µM): 0.972
- relative viability ([17]; first compound 50 µM): 1.04
- relative viability ([17]; first compound 158.11 µM): 0.689
- relative viability ([17]; first compound 500 µM): 0.0324
- relative viability ([18]; first compound 5 µM): 0.962
- relative viability ([18]; first compound 15.81 µM): 0.948
- relative viability ([18]; first compound 50 µM): 0.937
- relative viability ([18]; first compound 158.11 µM): 0.271
- relative viability ([18]; first compound 500 µM): 0.076
- relative viability ([19]; first compound 5 µM): 0.979
- relative viability ([19]; first compound 15.81 µM): 0.978
- relative viability ([19]; first compound 50 µM): 1.01
- relative viability ([19]; first compound 158.11 µM): 0.479
- relative viability ([19]; first compound 500 µM): 0.0276
- relative viability ([20]; first compound 5 µM): 0.982
- relative viability ([20]; first compound 15.81 µM): 1.06
- relative viability ([20]; first compound 50 µM): 0.841
- relative viability ([20]; first compound 158.11 µM): 0.371
- relative viability ([20]; first compound 500 µM): 0.142
- relative viability ([21]; first compound 5 µM): 0.973
- relative viability ([21]; first compound 15.81 µM): 0.899
- relative viability ([21]; first compound 50 µM): 0.916
- relative viability ([21]; first compound 158.11 µM): 0.163
- relative viability ([21]; first compound 500 µM): 0.139
- relative viability ([22]; first compound 5 µM): 0.875
- relative viability ([22]; first compound 15.81 µM): 0.754
- relative viability ([22]; first compound 50 µM): 0.626
- relative viability ([22]; first compound 158.11 µM): 0.282
- relative viability ([22]; first compound 500 µM): 0.092
